Laboratory results: US9040591B2, “Methods and compositions comprising at least one α3 βA4 nAChR antagonist or pharmaceutically acceptable salt thereof” (AGI Therapeutics Public Limited Company, priority 2003, dated 2015)
Where a name gives a salt, the structure may show the parent alone.

Experiments:
[1] = Pharmacokinetics of oral conventional formulation in adults (Young et al. 2001); format: in vivo, human adults; conditions: expected
Procedure: Bear et al., Am. J. Physiol., 186, 180-86 (1956). […] Young et al., Clinical Therapeutics, 23(4) (2001). […] The typical dose used for treating hypertensive subjects is about 25 mg/day, and is dosed using conventional formulations.

[2] = Clinical study of transdermal mecamylamine patches in smokers, treatment emergent effects; format: in vivo, human; conditions: for Side effect: Constipation: transdermal patches of Example 1, smokers but otherwise healthy subjects
From the text: The mecamylamine transdermal formulation is a transdermal patch that contains mecamylamine blended with an acrylic adhesive that is coated onto a printed backing to produce transdermal patches.

[3] = system: patients with dominant chronic diarrhea symptoms (functional diarrhea); test: Example 3 randomized, double-blind, placebo-controlled forced dose escalation study in Functional Diarrhea; format: in vivo, human; conditions: for number of patients showing improvement in stool consistency / percent of patients showing improvement in stool consistency: modified per-protocol population
From the text: Eight-two patients (both male and female) meeting ROME II criteria (modified) for Functional Diarrhea were randomized in the study. […] For example, the following table summarizes the number of patients showing “improvement” in stool consistency. Prior to treatment, patients were to be experiencing >50% of the time, a mushy/watery stool consistency in at least 75% of their daily stools. “Improvement” represents a patient experiencing <50% of the time, a mushy/watery stool consistency in at least 75% of daily stools.

[4] = Second clinical trial, treatment emergent effects associated with ganglion blocking activity; format: in vivo, human
Procedure: In a second clinical trial, the frequency of treatment emergent effects typically associated with “ganglion blocking” activity was assessed. The following treatment emergent effects were found: […]

[5] = 2.5 mg dose, conventional formulation, adults; cited from earlier work
[6] = transdermal patches of Example 1, smokers

CNC1(C)C2CCC(C2)C1(C)C (stereo not drawn) [Mecamylamine, N-2,3,3-tetramethylbicyclo-[2.2.1]heptan-2-amine]
24 hour plasma concentration level as % of peak plasma concentration [1]: less than 25% | time for which about 50% of the peak plasma concentration is maintained [1]: about 14 hours | Side effect: Application [2, 6]: 25% | Side effect: Asthenia [2, 6]: 14% | Side effect: Dizziness [2, 6]: 17% | Side effect: Headache [2, 6]: 36% | Side effect: Insomnia [2, 6]: 14% | Side effect: Nausea [2, 6]: 15% | Side effect: Rash [2, 6]: 13% | Side effect: Constipation [2]: 42% | Side effect: Constipation ([2]; listed as mecamylamine): 42% | overall incidence of adverse events versus placebo ([3]; 12-week study): similar | changes in blood pressure ([3]; 12-week study, FIGS. 1 and 2): no clinically significant changes in blood pressure | number of patients showing improvement in stool consistency ([3]; Entire Study): 8/18 | percent of patients showing improvement in stool consistency ([3]; Entire Study): 44.4% | number of patients showing improvement in stool consistency ([3]; Week 4 (2 mg/day)): 8/18 | percent of patients showing improvement in stool consistency ([3]; Week 4 (2 mg/day)): 44.4% | number of patients showing improvement in stool consistency ([3]; Week 8 (4 mg/day)): 8/18 | percent of patients showing improvement in stool consistency ([3]; Week 8 (4 mg/day)): 44.4% | number of patients showing improvement in stool consistency ([3]; Week 12 (6 mg/day)): 9/18 | percent of patients showing improvement in stool consistency ([3]; Week 12 (6 mg/day)): 50.0% | primary and secondary endpoints versus placebo ([3]; intent-to-treat analysis, entire 12 weeks of dose-escalation therapy): failed to show any statistically significant difference from placebo | stool consistency versus placebo ([3]; intent-to-treat analysis, week 4 (2 mg/day)): improvement in stool consistency | stool consistency versus placebo ([3]; modified per-protocol population (n=35), entire dose-escalation and each dose treatment phase): significant improvements in stool consistency | Side effect: Cardiac Disorder [4]: 1.3% | Side effect: Constipation [4]: 28.9% | Side effect: Dizziness [4]: 4.0% | Side effect: Dry Mouth [4]: 3.4% | Side effect: Eye [4]: 0.7% | Side effect: Gastrointestinal [4]: 4.36% | Side effect: Nausea [4]: 5.4% | Side effect: Urinary Retention [4]: 0.7%

CNC1(C)C2CCC(C2)C1(C)C (stereo not drawn) [mecamylamine hydrochloride, N-2,3,3-tetramethylbicyclo[2.2.1]heptan-2-amine hydrochloride]
maximum plasma concentration (Cmax) [5]: about 7.89 ng/mL
